{"source": "patent US20090170940A1", "about": "(priority 2007, published 2009)", "key": {"humans": {"system": "humans", "conditions": "cited from earlier work"}}, "note": "Structures can show the parent of a compound that is named as a salt."}
{"smiles": "CCOC=O", "note": "[ethyl formate]", "values": [{"measurement": "% Eclosion", "setting": "nematode eggs", "result": 0.05, "unit": "%"}]}
{"smiles": "CNC(=O)Oc1cccc2c1OC(C)(C)C2", "note": "[Furadan, 2,3-dihydro-2,2-dimethyl-7-benzofuranyl methylcarbamate]", "values": [{"measurement": "% Eclosion", "setting": "nematode eggs", "result": 0.05, "unit": "%"}, {"measurement": "amount that can be fatal", "setting": "humans", "result": 1, "unit": "mL"}]}
